Experimental data as given in PubChem BioAssay AID2060483 (Molecular Pharmacology Branch, DTP, NCI, 2025).

Test system: K24384-001-R-PDC complex spheroids, viability
Assay: Anticancer human tumor K24384-001-R-PDC patient-derived pancreatic adenocarcinoma cell line growth inhibition [GQUAD]
Settings: for IC50: curve of first compound; for viability, T/C: stronger effect = lower value
Outline: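 Viability of tumor cells grown as complex spheroids with endothelial and stromal cells, exposed to drug combinations. Top concentration at or near clinical Cmax (else 10 microM), diluted in half-log increments.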

[1] = second compound 0.0316 µM, first compound 0.0316 µM
[2] = second compound 0.0316 µM, first compound 0.1 µM
[3] = second compound 0.0316 µM, first compound 0.316 µM
[4] = second compound 0.0316 µM, first compound 1 µM
[5] = second compound 0.0316 µM, first compound 3.16 µM
[6] = second compound 0.0316 µM, first compound 10 µM
[7] = second compound 0.1 µM, first compound 0.0316 µM
[8] = second compound 0.1 µM, first compound 0.1 µM
[9] = second compound 0.1 µM, first compound 0.316 µM
[10] = second compound 0.1 µM, first compound 1 µM
[11] = second compound 0.1 µM, first compound 3.16 µM
[12] = second compound 0.1 µM, first compound 10 µM
[13] = second compound 0.316 µM, first compound 0.0316 µM
[14] = second compound 0.316 µM, first compound 0.1 µM
[15] = second compound 0.316 µM, first compound 0.316 µM
[16] = second compound 0.316 µM, first compound 1 µM
[17] = second compound 0.316 µM, first compound 3.16 µM
[18] = second compound 0.316 µM, first compound 10 µM
[19] = second compound 1 µM, first compound 0.0316 µM
[20] = second compound 1 µM, first compound 0.1 µM
[21] = second compound 1 µM, first compound 0.316 µM
[22] = second compound 1 µM, first compound 1 µM
[23] = second compound 1 µM, first compound 3.16 µM
[24] = second compound 1 µM, first compound 10 µM
[25] = second compound 3.16 µM, first compound 0.0316 µM
[26] = second compound 3.16 µM, first compound 0.1 µM
[27] = second compound 3.16 µM, first compound 0.316 µM
[28] = second compound 3.16 µM, first compound 1 µM
[29] = second compound 3.16 µM, first compound 3.16 µM
[30] = second compound 3.16 µM, first compound 10 µM
[31] = second compound 10 µM, first compound 0.0316 µM
[32] = second compound 10 µM, first compound 0.1 µM
[33] = second compound 10 µM, first compound 0.316 µM
[34] = second compound 10 µM, first compound 1 µM
[35] = second compound 10 µM, first compound 3.16 µM
[36] = second compound 10 µM, first compound 10 µM
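Note: spheroids exposed to compounds for seven days.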

`C#Cc1c(F)ccc2cc(O)cc(-c3ncc4c(N5CC6CCC(C5)N6)nc(OCC56CCCN5CC(F)C6)nc4c3F)c12` (stereo unspecified) + CN(C)c1ccc(Nc2c3ccc(NC(=O)CCN4CCCC4)cc3nc3cc(NC(=O)CCN4CCCC4)ccc23)cc1 gave an IC50 (second compound 0.0316 µM) of 1050 nM, an IC50 (second compound 0.1 µM) of 1690 nM and an IC50 (second compound 0.316 µM) of 1520 nM. For the same molecule, the IC50 (second compound 1 µM) was 1780 nM, the IC50 (second compound 3.16 µM) was 1750 nM and the IC50 (second compound 10 µM) was 1120 nM. It also gave a viability, T/C [1] of 101%, a viability, T/C [2] of 84.6% and a viability, T/C [3] of 68.1%. For the same molecule, the viability, T/C [4] was 51.5%, the viability, T/C [5] was 32.5% and the viability, T/C [6] was 14.4%. For the same molecule, the viability, T/C [7] was 109%, the viability, T/C [8] was 105% and the viability, T/C [9] was 78.2%. For the same molecule, the viability, T/C [10] was 63.9%, the viability, T/C [11] was 36.1% and the viability, T/C [12] was 16%. It also gave a viability, T/C [13] of 87.7%, a viability, T/C [14] of 108% and a viability, T/C [15] of 85%. The viability, T/C [16] was 61.5%, the viability, T/C [17] was 31.1% and the viability, T/C [18] was 20.1%. For the same molecule, the viability, T/C [19] was 104%, the viability, T/C [20] was 82.1% and the viability, T/C [21] was 90.4%. It also gave a viability, T/C [22] of 58.1%, a viability, T/C [23] of 38.7% and a viability, T/C [24] of 17.6%. For the same molecule, the viability, T/C [25] was 89.3%, the viability, T/C [26] was 85.8% and the viability, T/C [27] was 92.3%. It also gave a viability, T/C [28] of 61.9%, a viability, T/C [29] of 35.5% and a viability, T/C [30] of 14.4%. It also gave a viability, T/C [31] of 92.5%, a viability, T/C [32] of 77% and a viability, T/C [33] of 68.5%. The viability, T/C [34] was 55.1%, the viability, T/C [35] was 30.1% and the viability, T/C [36] was 7.21%.
`CC(=O)O[C@H]1C(=O)[C@@]2(C)[C@H]([C@H](OC(=O)c3ccccc3)[C@]3(O)C[C@H](OC(=O)[C@H](O)[C@@H](NC(=O)c4ccccc4)c4ccccc4)C(C)=C1C3(C)C)[C@]1(OC(C)=O)CO[C@@H]1C[C@@H]2O` + CN(C)c1ccc(Nc2c3ccc(NC(=O)CCN4CCCC4)cc3nc3cc(NC(=O)CCN4CCCC4)ccc23)cc1 was tested, and the IC50 (second compound 0.0316 µM) was < 31.6 nM, the IC50 (second compound 0.1 µM) was < 31.6 nM and the IC50 (second compound 0.316 µM) was < 31.6 nM. For the same molecule, the IC50 (second compound 1 µM) was < 31.6 nM, the IC50 (second compound 3.16 µM) was < 31.6 nM and the IC50 (second compound 10 µM) was < 31.6 nM. The viability, T/C [1] was 32.2%, the viability, T/C [2] was 22.9% and the viability, T/C [3] was 20.5%. The viability, T/C [4] was 20.1%, the viability, T/C [5] was 22.4% and the viability, T/C [6] was 25.3%. The viability, T/C [7] was 34.5%, the viability, T/C [8] was 22.1% and the viability, T/C [9] was 18.5%. For the same molecule, the viability, T/C [10] was 21.3%, the viability, T/C [11] was 20.7% and the viability, T/C [12] was 25.7%. It also gave a viability, T/C [13] of 37.3%, a viability, T/C [14] of 22.4% and a viability, T/C [15] of 17.6%. For the same molecule, the viability, T/C [16] was 19.8%, the viability, T/C [17] was 19.5% and the viability, T/C [18] was 25.7%. The viability, T/C [19] was 33.4%, the viability, T/C [20] was 23.7% and the viability, T/C [21] was 19.3%. The viability, T/C [22] was 19.9%, the viability, T/C [23] was 26.1% and the viability, T/C [24] was 27.5%. For the same molecule, the viability, T/C [25] was 29.4%, the viability, T/C [26] was 20.7% and the viability, T/C [27] was 24.4%. For the same molecule, the viability, T/C [28] was 17.4%, the viability, T/C [29] was 23.2% and the viability, T/C [30] was 30.1%. It also gave a viability, T/C [31] of 38.2%, a viability, T/C [32] of 26.4% and a viability, T/C [33] of 24.9%. It also gave a viability, T/C [34] of 24.5%, a viability, T/C [35] of 33.9% and a viability, T/C [36] of 40.9%.
In the case of `CCCS(=O)(=O)Nc1ccc(F)c(C(=O)c2c[nH]c3ncc(-c4ccc(Cl)cc4)cc23)c1F` + CN(C)c1ccc(Nc2c3ccc(NC(=O)CCN4CCCC4)cc3nc3cc(NC(=O)CCN4CCCC4)ccc23)cc1, the IC50 (second compound 0.0316 µM) is reported as > 10000 nM, the IC50 (second compound 0.1 µM) is reported as 9980 nM and the IC50 (second compound 0.316 µM) is reported as > 10000 nM. The IC50 (second compound 1 µM) was > 10000 nM, the IC50 (second compound 3.16 µM) was 9350 nM and the IC50 (second compound 10 µM) was 7840 nM. The viability, T/C [1] was 110%, the viability, T/C [2] was 102% and the viability, T/C [3] was 129%. For the same molecule, the viability, T/C [4] was 128%, the viability, T/C [5] was 138% and the viability, T/C [6] was 54%. The viability, T/C [7] was 98.5%, the viability, T/C [8] was 118% and the viability, T/C [9] was 113%. For the same molecule, the viability, T/C [10] was 124%, the viability, T/C [11] was 150% and the viability, T/C [12] was 49.8%. It also gave a viability, T/C [13] of 93.5%, a viability, T/C [14] of 114% and a viability, T/C [15] of 124%. The viability, T/C [16] was 125%, the viability, T/C [17] was 144% and the viability, T/C [18] was 52%. For the same molecule, the viability, T/C [19] was 102%, the viability, T/C [20] was 105% and the viability, T/C [21] was 117%. For the same molecule, the viability, T/C [22] was 131%, the viability, T/C [23] was 154% and the viability, T/C [24] was 53.3%. For the same molecule, the viability, T/C [25] was 92.7%, the viability, T/C [26] was 101% and the viability, T/C [27] was 97.2%. The viability, T/C [28] was 128%, the viability, T/C [29] was 140% and the viability, T/C [30] was 46%. It also gave a viability, T/C [31] of 84.3%, a viability, T/C [32] of 114% and a viability, T/C [33] of 109%. The viability, T/C [34] was 149%, the viability, T/C [35] was 139% and the viability, T/C [36] was 31.3%.
